This note sets out measurements from US8871756B2 (Hoffmann-La Roche Inc., priority 2011, dated 2014).

The experiment deals with RSV Long strain. Nature of the experiment: Viral cytopathic effect (CPE) assay, anti-RSV activity. The format is cell-based, Respiratory Syncytial Virus. To be noted: human respiratory syncytial virus, 144 h, RSV Long strain (ATCC); cell viability after 6 days, Cell Counting kit-8. The gist of the method: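 EC50 was derived from CCK-8 viability at 450/630 nm measured 6 days post-infection. Infection used enough RSV Long strain for approximately 80–90% cytopathic effect, in the presence of half-log serially diluted compound. Cells were plated the day before at 6×10^3 per well in DMEM/10% FBS.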

Where a name gives a salt, the structure may show the parent alone.

Take `NCCCNc1cc(N2CCS(=O)(=O)c3ccccc3C2)nc2ccc(Oc3ccccn3)cc12` [Example 31, N-[2-(1,1-Dioxido-2,3-dihydro-1,4-benzothiazepin-4(5H)-yl)-6-(pyridin-2-yloxy)quinolin-4-yl]propane-1,3-diamine]: it took 0.702 µM to reach a half-maximal effect (EC50). For `Cc1ccc2nc(N3CCC(=O)c4ccccc4C3)nc(NCC3(N)COC3)c2c1` [Example 114-1, 2-(4-{[(3-Aminooxetan-3-yl)methyl]amino}-6-methylquinazolin-2-yl)-1,2,3,4-tetrahydro-5H-2-benzazepin-5-one], the EC50 amounted to 0.007 µM.

As to `Cc1ccc2nc(N3CCS(=O)(=O)c4ccccc4C3)cc(N3CCC(C)(O)C3)c2c1` (stereo not drawn) [Example 3-45, 1-[2-(1,1-Dioxido-2,3-dihydro-1,4-benzothiazepin-4(5H)-yl)-6-methylquinolin-4-yl]-3-methylpyrrolidin-3-ol], the EC50 amounted to 5.23 µM. The result for `NCCNc1cc(N2CCCc3ccccc3C2)nc2ccc(F)cc12` [Example 118-21, N-[6-Fluoro-2-(1,3,4,5-tetrahydro-2H-2-benzazepin-2-yl)quinolin-4-yl]ethane-1,2-diamine] reads 1.38 µM; that for `Cc1ccc2nc(N3CCC(F)(F)c4ccccc4C3)cc(NCC3(CN)COC3)c2c1` [Example 110-15, N-{[3-(Aminomethyl)oxetan-3-yl]methyl}-2-(5,5-difluoro-1,3,4,5-tetrahydro-2H-2-benzazepin-2-yl)-6-methylquinolin-4-amine], 0.004 µM. Consider `Cc1ccc2nc(N3CCS(=O)(=O)c4ccccc4C3)cc(C(=O)C3CCNCC3)c2c1` [Example 100, [2-(1,1-Dioxido-2,3-dihydro-1,4-benzothiazepin-4(5H)-yl)-6-methylquinolin-4-yl](piperidin-4-yl)methanone], for which a half-maximal effect (EC50) was put at 9.19 µM. The result for `N[C@@H]1CN(c2cc(N3CCS(=O)(=O)c4ccccc4C3)nc3ccc(Cl)cc23)C[C@H]1F` (relative stereo) [Example 19-5, trans-1-[6-Chloro-2-(1,1-dioxido-2,3-dihydro-1,4-benzothiazepin-4(5H)-yl)quinolin-4-yl]-4-fluoropyrrolidin-3-amine] reads 3.07 µM. The result for `Cc1ccc2nc(N3CCSc4ccccc4C3)nc(N)c2c1` [Example 58, 2-(2,3-Dihydro-1,4-benzothiazepin-4(5H)-yl)-6-methylquinazolin-4-amine] reads 2.77 µM; that for `Cc1ccc2nc(N3CCS(=O)(=O)c4ccccc4C3)cc(N(C)CCN)c2c1` [Example 21-2, N-[2-(1,1-Dioxido-2,3-dihydro-1,4-benzothiazepin-4(5H)-yl)-6-methylquinolin-4-yl]-N-methylethane-1,2-diamine], 0.161 µM; that for `CC(=O)NCCNc1cc(N2CCS(=O)(=O)c3ccccc3C2)nc2ccc(C)cc12` [Example 63-1, N-(2-{[2-(1,1-Dioxido-2,3-dihydro-1,4-benzothiazepin-4(5H)-yl)-6-methylquinolin-4-yl]amino}ethyl)acetamide], 3.13 µM. The result for `NC1=NCC(CNc2cc(N3CCCc4ccccc4C3)nc3ccccc23)O1` (stereo not drawn) [Example 126-1, N-[(2-Amino-4,5-dihydro-1,3-oxazol-5-yl)methyl]-2-(1,3,4,5-tetrahydro-2H-2-benzazepin-2-yl)quinolin-4-amine trifluoroacetate] reads 0.79 µM; that for `Cc1ccc2nc(N3CCS(=O)(=O)c4ccccc4C3)cc(N3CCC(CN)CC3)c2c1` [Example 9-1, 1-{1-[2-(1,1-Dioxido-2,3-dihydro-1,4-benzothiazepin-4(5H)-yl)-6-methylquinolin-4-yl]piperidin-4-yl}methanamine], 2.35 µM.

Consider `Cc1ccc2nc(N3CCC(F)(F)c4ccccc4C3)cc(NCCN)c2c1` [Example 111-6, N-[2-(5,5-Difluoro-1,3,4,5-tetrahydro-2H-2-benzazepin-2-yl)-6-methylquinolin-4-yl]ethane-1,2-diamine], for which the response was half-maximal at 0.062 µM (EC50). The result for `NC1(CNc2nc(N3CC[S+]([O-])c4ccccc4C3)nc3ccc(Cl)cc23)COC1` (stereo not drawn) [Example 57-5, N-[(3-Aminooxetan-3-yl)methyl]-6-chloro-2-(1-oxido-2,3-dihydro-1,4-benzothiazepin-4(5H)-yl)quinazolin-4-amine] reads 0.027 µM; that for `NCC1(CNc2cc(N3CCS(=O)(=O)c4ccccc4C3)nc3ccc(C(=O)O)cc23)COC1` [Example 105, 4-({[3-(Aminomethyl)oxetan-3-yl]methyl}amino)-2-(1,1-dioxido-2,3-dihydro-1,4-benzothiazepin-4(5H)-yl)quinoline-6-carboxylic acid], 1.08 µM; that for `Cc1ccc2nc(N3CCS(=O)(=O)c4ccccc4C3)cc(N3CCC(N)CC3)c2c1` [Example 9-27, 1-[2-(1,1-Dioxido-2,3-dihydro-1,4-benzothiazepin-4(5H)-yl)-6-methylquinolin-4-yl]piperidin-4-amine], 0.797 µM. `Cc1ccc2nc(N3CCS(=O)(=O)c4ccccc4C3)cc(-c3cc[nH]n3)c2c1` [Example 101, 4-[6-Methyl-4-(1H-pyrazol-3-yl)quinolin-2-yl]-2,3,4,5-tetrahydro-1,4-benzothiazepine 1,1-dioxide] registered an EC50 of 8.58 µM. For the compound `CNC(=O)CNc1cc(N2CCS(=O)(=O)c3ccccc3C2)nc2ccc(C)cc12` [Example 36-6, N^˜2^˜-[2-(1,1-Dioxido-2,3-dihydro-1,4-benzothiazepin-4(5H)-yl)-6-methylquinolin-4-yl]-N-methylglycinamide], the midpoint of the response, the EC50, lay at 0.264 µM. Turning to `Cc1ccc2nc(N3CCS(=N)(=O)c4ccccc4C3)cc(N3CC(N)C(O)C3)c2c1` (stereo not drawn) [Example 78-1, trans-4-Amino-1-[2-(1-imino-1-oxido-1,2,3,5-tetrahydro-4H-1lambda˜4˜,4-benzothiazepin-4-yl)-6-methylquinolin-4-yl]pyrrolidin-3-ol], the EC50 was found to be 0.016 µM.

Turning to `Cc1ccc2nc(N3CCS(=O)(=O)c4ccccc4C3)cc(NCC3(CN)CSC3)c2c1` [Example 6-1, N-{[3-(Aminomethyl)thietan-3-yl]methyl}-2-(1,1-dioxido-2,3-dihydro-1,4-benzothiazepin-4(5H)-yl)-6-methylquinolin-4-amine], the EC50 amounted to 0.025 µM. The result for `N[C@@H]1CN(c2cc(N3CC[S+]([O-])c4ccccc4C3)nc3ccc(Cl)cc23)C[C@H]1F` (relative stereo) [Example 19-7, trans-1-[6-Chloro-2-(1-oxido-2,3-dihydro-1,4-benzothiazepin-4(5H)-yl)quinolin-4-yl]-4-fluoropyrrolidin-3-amine] reads 6.86 µM; that for `Cc1ccc2nc(N3CCS(=O)(=O)c4ccccc4C3)cc(NC(C)(C)CN)c2c1` [Example 9-17, N^˜2^˜-[2-(1,1-Dioxido-2,3-dihydro-1,4-benzothiazepin-4(5H)-yl)-6-methylquinolin-4-yl]-2-methylpropane-1,2-diamine], 0.025 µM. Compound `COc1ccc2c(c1)S(=O)(=O)CCN(c1cc(N)c3cc(C)ccc3n1)C2` [Example 20-1, 2-(8-Methoxy-1,1-dioxido-2,3-dihydro-1,4-benzothiazepin-4(5H)-yl)-6-methylquinolin-4-amine] showed an EC50 of 0.073 µM. The figure for `Cc1ccc2nc(N3CCS(=O)(=O)c4ccccc4C3)cc(NC(=O)c3cnccn3)c2c1` [Example 47-8, N-[2-(1,1-Dioxido-2,3-dihydro-1,4-benzothiazepin-4(5H)-yl)-6-methylquinolin-4-yl]pyrazine-2-carboxamide] is 0.432 µM.
